The assay deals with C. elegans wild-type, dpy-18(ok162) or phy-2(ok177). The assay can be described thus: Exposure of adult hermaphrodites to inhibitors, lethality of progeny. Format: in vivo, Caenorhabditis elegans. As to conditions: regardless of genotype (wild-type. The procedure: All wild-type C. elegans were from an N2 Bristol strain. Worms were cultured at 20° C. under standard conditions unless otherwise noted (J. E. Sulston and J. Hodgkin, Methods. In The Nematode Caenorhabditis elegans, pp. 587-606, 1988). LG II:unc-4(e120) was used as a marker for transgenic assays. LG III:dpy-18(ok162) is a deletion mutation isolated specifically as a knock-out of the prolyl 4-hydroxylase on chromosome III. […] 11 alleles (mutations in the dpy-18 gene) are known—dpy-18: e346, e364, e499, e1096, e1270, e1862, h662, s361, s1304, s1305, s1306. LG IV:unc-22(e66) is a mutation that can be used to recognize chromosome IV, and poh-1(ok-177) is a deletion mutation isolated specifically as a knock-out of the prolyl 4-hydroxylase gene on chromosome IV.
Small molecules that inhibit protein function can be used to confirm and extend results from genetic experiments. We tested two known prolyl 4-hydroxylase inhibitors for their effects on C. elegans. […] Both inhibitors limit prolyl 4-hydroxylase activity in cells, where their esters are hydrolyzed to form competitors of α-ketoglutarate. We also tested Inhibitor III (which is similar in structure to Inhibitor II) and Inhibitor IV (which is similar in structure to Inhibitor I). Neither Inhibitor III nor […] is known to limit prolyl 4-hydroxylase activity in cells. […]

For `CCOC(=O)c1ccnc(C(=O)OCC)c1` [Inhibitor I, 2,4-diethylpyridine dicarboxylate], for the setting “high level 2.7 μM, FIG. 2A”, the lethality of progeny result was “all progeny died”. Regarding `COC(=O)CNC(=O)C(=O)OC` [Inhibitor II, dimethyloxalylglycine], the lethality of progeny result (high level 1.3 μM, FIG. 2B) is reported as “all progeny died”.

The values are drawn from patent publication US6833489B1, “Assays for modulators of prolyl-4-hydroxylase” (Wisconsin Alumni Research Foundation, priority 1999, dated 2004).
